# From patent US12071425B2 (Genentech, Inc., priority 2018, dated 2024)
# Target: kinase domain of IRE1 alpha (His-tagged kinase dead construct KR, AA G547-L977, D688N) (Homo sapiens (Human), UniProt O75460, D688N)
# Assay: IRE1α TR-FRET competition binding assay
# Conditions: competition with Kinase Tracer 236, 0.1 μM; one hour at room temperature
# Procedure, shortened: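 Compound displacement of an ATP-site fluorescent tracer (0.1 μM final) measured by TR-FRET after 1 h at room temperature. Protein, a His-tagged D688N kinase/RNase construct from Sf9 cells (0.006 μM final), was pre-bound 1 h at 4° C to Eu anti-His antibody (0.002 μM) in pH 7.5 HEPES buffer.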
# Chain of kinase domain of IRE1 alpha (His-tagged kinase dead construct KR, AA G547-L977, D688N) (O75460 547-977 D688N): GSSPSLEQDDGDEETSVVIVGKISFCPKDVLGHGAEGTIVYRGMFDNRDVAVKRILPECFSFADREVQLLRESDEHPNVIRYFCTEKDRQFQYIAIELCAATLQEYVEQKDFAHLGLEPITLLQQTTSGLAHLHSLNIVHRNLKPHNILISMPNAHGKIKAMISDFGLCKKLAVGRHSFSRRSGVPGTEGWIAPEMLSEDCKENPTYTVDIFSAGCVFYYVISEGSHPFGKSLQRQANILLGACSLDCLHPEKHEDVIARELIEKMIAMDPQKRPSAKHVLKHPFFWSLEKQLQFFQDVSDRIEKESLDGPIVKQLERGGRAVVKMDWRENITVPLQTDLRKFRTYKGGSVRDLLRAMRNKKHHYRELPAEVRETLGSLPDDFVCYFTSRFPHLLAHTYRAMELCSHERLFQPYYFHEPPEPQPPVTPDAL
row,Compound,IC50
1,"O=S(=O)(CC1CC(F)(F)C1)Nc1ccc(Oc2ncccc2-c2ccnc(N[C@H]3CCCNC3)n2)c(F)c1F [Compound 232, (S)-N-(2,3-difluoro-4-(3-(2-(piperidin-3-ylamino)pyrimidin-4-yl)pyridin-2-yloxy)phenyl)-1-(3,3-difluorocyclobutyl)methanesulfonamide]",15 nM
2,"O=S(=O)(Cc1cccnc1)Nc1ccc(Oc2ncccc2-c2ccnc(N[C@H]3CCCNC3)n2)c(F)c1F [Compound 233, (S)-N-(2,3-difluoro-4-(3-(2-(piperidin-3-ylamino)pyrimidin-4-yl)pyridin-2-yloxy)phenyl)-1-(pyridin-3-yl)methanesulfonamide]",9 nM
3,"O=S(=O)(Cc1ccncc1)Nc1ccc(Oc2ncccc2-c2ccnc(N[C@H]3CCCNC3)n2)c(F)c1F [Compound 234, (S)-N-(2,3-difluoro-4-(3-(2-(piperidin-3-ylamino)pyrimidin-4-yl)pyridin-2-yloxy)phenyl)-1-(pyridin-4-yl)methanesulfonamide]",7 nM
4,"Cn1ccc(CS(=O)(=O)Nc2c(F)cc(Oc3ncccc3-c3ccnc(N[C@H]4CCCNC4)n3)c(F)c2F)n1 [Compound 236, (S)-1-(1-methyl-1H-pyrazol-3-yl)-N-(2,3,6-trifluoro-4-(3-(2-(piperidin-3-ylamino)pyrimidin-4-yl)pyridin-2-yloxy)phenyl)methanesulfonamide]",9 nM
5,"Cc1c(Oc2ncccc2-c2ccnc(N[C@H]3CCCNC3)n2)ccc(NS(=O)(=O)Cc2ccccc2)c1F [Compound 237, N-[2-Fluoro-3-methyl-4-[[3-[2-[[(3S)-3-piperidyl]amino]pyrimidin-4-yl]-2-pyridyl]oxy]phenyl]-1 phenylmethanesulfonamide]",8.4 nM
6,"O=S(=O)(Cc1ccccn1)Nc1ccc(Oc2ncccc2-c2ccnc(N[C@H]3CCCNC3)n2)c(F)c1F [Compound 238, (S)—N-(2,3-Difluoro-4-(3-(2-(piperidin-3-ylamino)pyrimidin-4-yl)pyridin-2-yloxy)phenyl)-1-(pyridin-2-yl)methanesulfonamide]",14 nM
7,"COCCS(=O)(=O)Nc1c(F)cc(Oc2ncccc2-c2ccnc(N[C@@H]3CNC[C@@H](F)C3)n2)c(F)c1F [Compound 252, 2-Methoxy-N-(2,3,6-trifluoro-4-((3-(2-(((3S,5S)-5-fluoropiperidin-3-yl)amino)pyrimidin-4-yl)pyridin-2-yl)oxy)phenyl)ethane-1-sulfonamide]",14 nM
8,"Cc1c(F)c(NS(=O)(=O)Cc2ccc(C#N)cc2)c(F)c(F)c1Oc1ncccc1-c1ccnc(N[C@@H]2CNC[C@@H](F)C2)n1 [Compound 255, 1-(4-Cyanophenyl)-N-(2,3,6-trifluoro-4-((3-(2-(((3S,5S)-5-fluoropiperidin-3-yl)amino)pyrimidin-4-yl)pyridin-2-yl)oxy)-5-methylphenyl)methanesulfonamide]",230 nM
9,"C[C@H]1CC[C@H](Nc2nccc(-c3cccnc3Oc3cc(F)c(NS(=O)(=O)Cc4ccccc4)c(F)c3F)n2)CN1 [Compound 257, 1-Phenyl-N-(2,3,6-trifluoro-4-((3-(2-(((3S,6S)-6-methylpiperidin-3-yl)amino)pyrimidin-4-yl)pyridin-2-yl)oxy)phenyl)methanesulfonamide]",24 nM
10,"O=S(=O)(Nc1c(F)cc(Oc2ncccc2-c2ccnc(N[C@@H]3CNC[C@@H](F)C3)n2)c(F)c1F)N1CCCC1 [Compound 258, N-(2,3,6-Trifluoro-4-((3-(2-(((3S,5S)-5-fluoropiperidin-3-yl)amino)pyrimidin-4-yl)pyridin-2-yl)oxy)phenyl)pyrrolidine-1-sulfonamide]",5.2 nM

# Now those with a lower IC50, led by results:
row,IC50,Compound
1,4 nM,"O=S(=O)(Cc1ccc(F)cc1)Nc1ccc(Oc2ncccc2-c2ccnc(N[C@H]3CCCNC3)n2)c(F)c1F [Compound 235, (S)-N-(2,3-difluoro-4-(3-(2-(piperidin-3-ylamino)pyrimidin-4-yl)pyridin-2-yloxy)phenyl)-1-(4-fluorophenyl)methanesulfonamide]"
2,4.9 nM,"N#Cc1ccc(CS(=O)(=O)Nc2ccc(Oc3ncccc3-c3ccnc(N[C@H]4CCCNC4)n3)c(F)c2F)cc1 [Compound 250, (S)-1-(4-Cyanophenyl)-N-(2,3-difluoro-4-((3-(2-(piperidin-3-ylamino)pyrimidin-4-yl)pyridin-2-yl)oxy)phenyl)methanesulfonamide]"
3,2.8 nM,"C[C@@]1(F)CNC[C@@H](Nc2nccc(-c3cccnc3Oc3cc(F)c(NS(=O)(=O)CC4CC(F)(F)C4)c(F)c3F)n2)C1 [Compound 251, 1-(3,3-Difluorocyclobutyl)-N-(2,3,6-trifluoro-4-((3-(2-(((3S,5S)-5-fluoro-5-methylpiperidin-3-yl)amino)pyrimidin-4-yl)pyridin-2-yl)oxy)phenyl)methanesulfonamide]"
4,1.9 nM,"CC(F)(F)CCS(=O)(=O)Nc1c(F)cc(Oc2ncccc2-c2ccnc(N[C@@H]3CNC[C@@H](F)C3)n2)c(F)c1F [Compound 253, 3,3-Difluoro-N-(2,3,6-trifluoro-4-((3-(2-(((3S,5S)-5-fluoropiperidin-3-yl)amino)pyrimidin-4-yl)pyridin-2-yl)oxy)phenyl)butane-1-sulfonamide]"
5,0.62 nM,"O=S(=O)(Cc1ccc(C(F)(F)F)nc1)Nc1c(F)cc(Oc2ncccc2-c2ccnc(N[C@@H]3CNC[C@@H](F)C3)n2)c(F)c1F [Compound 254, N-(2,3,6-Trifluoro-4-((3-(2-(((3S,5S)-5-fluoropiperidin-3-yl)amino)pyrimidin-4-yl)pyridin-2-yl)oxy)phenyl)-1-(6-(trifluoromethyl)pyridin-3-yl)methanesulfonamide]"
6,1 nM,"O=S(=O)(Cc1cccnc1)Nc1c(F)cc(Oc2ncccc2-c2ccnc(N[C@@H]3CNC[C@@H](F)C3)n2)c(F)c1F [Compound 256, 1-(Pyridin-3-yl)-N-(2,3,6-trifluoro-4-((3-(2-(((3S,5S)-5-fluoropiperidin-3-yl)amino)pyrimidin-4-yl)pyridin-2-yl)oxy)phenyl)methanesulfonamide]"
7,2 nM,"O=S(=O)(Cc1ccccc1)Nc1c(F)cc(Oc2ncccc2-c2ccnc(N[C@@H]3CNC[C@H](F)C3)n2)c(F)c1F [Compound 259, 1-Phenyl-N-(2,3,6-trifluoro-4-((3-(2-(((3S,5R)-5-fluoropiperidin-3-yl)amino)pyrimidin-4-yl)pyridin-2-yl)oxy)phenyl)methanesulfonamide]"
8,3.5 nM,"O=S(=O)(CC1(F)CC1)Nc1c(F)cc(Oc2ncccc2-c2ccnc(N[C@@H]3CNC[C@@H](F)C3)n2)c(F)c1F [Compound 261, 1-(l-Fluorocyclopropyl)-N-(2,3,6-trifluoro-4-((3-(2-(((3S,5S)-5-fluoropiperidin-3-yl)amino)pyrimidin-4-yl)pyridin-2-yl)oxy)phenyl)methanesulfonamide]"
9,0.25 nM,"O=S(=O)(Cc1ccccc1)Nc1c(F)cc(Oc2ncccc2-c2ccnc(N[C@@H]3CNC[C@H](CF)C3)n2)c(F)c1F [Compound 262, 1-Phenyl-N-(2,3,6-trifluoro-4-((3-(2-(((3S,5R)-5-(fluoromethyl)piperidin-3-yl)amino)pyrimidin-4-yl)pyridin-2-yl)oxy)phenyl)methanesulfonamide]"
10,1.5 nM,"O=S(=O)(Nc1c(F)cc(Oc2ncccc2-c2ccnc(N[C@@H]3CNC[C@@H](F)C3)n2)c(F)c1F)N1CCCCC1 [Compound 263, N-(2,3,6-Trifluoro-4-((3-(2-(((3S,5S)-5-fluoropiperidin-3-yl)amino)pyrimidin-4-yl)pyridin-2-yl)oxy)phenyl)piperidine-1-sulfonamide]"
